The values that follow are results of earlier work, collected in PMC10516900 (Communications Biology, 2023).

One series deals with USP7. Conditions: read-out: IC50 USP7; cited from earlier work.
Series [1] deals with multiple myeloma xenograft models. Conditions: in vitro and in vivo multiple myeloma xenograft models; cited from earlier work.
For a further series, the system named is USP47. Particulars: cited from earlier work.

The structures appear in SMILES notation.

The term IC50 denotes the concentration that inhibits the measured activity by half. With `CC(=O)c1cc([N+](=O)[O-])c(Sc2cccc(Cl)c2Cl)s1` [P5091, 1-[5-(2,3-dichlorophenylsulfanyl)−4-nitro-2thienl]ethanone], the IC50 in the series with USP7 was 4.2 µM; in the series on USP47, 4.3 µM. Further, the antitumor efficacy entry in series [1] was “antitumor efficacy”.
